Assays:
Nav 1.7 [1] = biological target: T1, Nav 1.7 (Homo sapiens (Human), UniProt Q15858); assay: Nav 1.7 IWQ in vitro assay (IonWorks Quattro population patch-clamp); assay type: cell-based; settings: 293 cells stably transfected with Nav 1.7; second part of table; read-out: Nav1.7 IWQ IC50 IP
How it was run: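 HEK293 cells stably expressing Nav 1.7, recorded by automated population patch-clamp with a train of depolarizations producing increasing inactivation. Single compound concentration added during 3–8 min unclamped period, then same protocol repeated. Leak-corrected current at 26th pulse to −20 mV gave percent block (duplicate); IC50 fitted from concentration–block curves.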

Nav 1.7 [2] = biological target: T1, Nav 1.7; assay: Nav 1.7 in vitro PX assay (PatchXpress whole cell voltage clamp); assay type: cell-based; settings: 293 cells, human Nav1.7, partially inactivated state; read-out: Nav1.7 PX IC50 IP
How it was run: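 HEK293 cells stably expressing human Nav1.7, whole-cell voltage clamp on PatchXpress, held at potential giving 20–50% inactivation; current elicited by 20 msec pulse to −10 mV.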

T1 sequence (Q15858 whole entry): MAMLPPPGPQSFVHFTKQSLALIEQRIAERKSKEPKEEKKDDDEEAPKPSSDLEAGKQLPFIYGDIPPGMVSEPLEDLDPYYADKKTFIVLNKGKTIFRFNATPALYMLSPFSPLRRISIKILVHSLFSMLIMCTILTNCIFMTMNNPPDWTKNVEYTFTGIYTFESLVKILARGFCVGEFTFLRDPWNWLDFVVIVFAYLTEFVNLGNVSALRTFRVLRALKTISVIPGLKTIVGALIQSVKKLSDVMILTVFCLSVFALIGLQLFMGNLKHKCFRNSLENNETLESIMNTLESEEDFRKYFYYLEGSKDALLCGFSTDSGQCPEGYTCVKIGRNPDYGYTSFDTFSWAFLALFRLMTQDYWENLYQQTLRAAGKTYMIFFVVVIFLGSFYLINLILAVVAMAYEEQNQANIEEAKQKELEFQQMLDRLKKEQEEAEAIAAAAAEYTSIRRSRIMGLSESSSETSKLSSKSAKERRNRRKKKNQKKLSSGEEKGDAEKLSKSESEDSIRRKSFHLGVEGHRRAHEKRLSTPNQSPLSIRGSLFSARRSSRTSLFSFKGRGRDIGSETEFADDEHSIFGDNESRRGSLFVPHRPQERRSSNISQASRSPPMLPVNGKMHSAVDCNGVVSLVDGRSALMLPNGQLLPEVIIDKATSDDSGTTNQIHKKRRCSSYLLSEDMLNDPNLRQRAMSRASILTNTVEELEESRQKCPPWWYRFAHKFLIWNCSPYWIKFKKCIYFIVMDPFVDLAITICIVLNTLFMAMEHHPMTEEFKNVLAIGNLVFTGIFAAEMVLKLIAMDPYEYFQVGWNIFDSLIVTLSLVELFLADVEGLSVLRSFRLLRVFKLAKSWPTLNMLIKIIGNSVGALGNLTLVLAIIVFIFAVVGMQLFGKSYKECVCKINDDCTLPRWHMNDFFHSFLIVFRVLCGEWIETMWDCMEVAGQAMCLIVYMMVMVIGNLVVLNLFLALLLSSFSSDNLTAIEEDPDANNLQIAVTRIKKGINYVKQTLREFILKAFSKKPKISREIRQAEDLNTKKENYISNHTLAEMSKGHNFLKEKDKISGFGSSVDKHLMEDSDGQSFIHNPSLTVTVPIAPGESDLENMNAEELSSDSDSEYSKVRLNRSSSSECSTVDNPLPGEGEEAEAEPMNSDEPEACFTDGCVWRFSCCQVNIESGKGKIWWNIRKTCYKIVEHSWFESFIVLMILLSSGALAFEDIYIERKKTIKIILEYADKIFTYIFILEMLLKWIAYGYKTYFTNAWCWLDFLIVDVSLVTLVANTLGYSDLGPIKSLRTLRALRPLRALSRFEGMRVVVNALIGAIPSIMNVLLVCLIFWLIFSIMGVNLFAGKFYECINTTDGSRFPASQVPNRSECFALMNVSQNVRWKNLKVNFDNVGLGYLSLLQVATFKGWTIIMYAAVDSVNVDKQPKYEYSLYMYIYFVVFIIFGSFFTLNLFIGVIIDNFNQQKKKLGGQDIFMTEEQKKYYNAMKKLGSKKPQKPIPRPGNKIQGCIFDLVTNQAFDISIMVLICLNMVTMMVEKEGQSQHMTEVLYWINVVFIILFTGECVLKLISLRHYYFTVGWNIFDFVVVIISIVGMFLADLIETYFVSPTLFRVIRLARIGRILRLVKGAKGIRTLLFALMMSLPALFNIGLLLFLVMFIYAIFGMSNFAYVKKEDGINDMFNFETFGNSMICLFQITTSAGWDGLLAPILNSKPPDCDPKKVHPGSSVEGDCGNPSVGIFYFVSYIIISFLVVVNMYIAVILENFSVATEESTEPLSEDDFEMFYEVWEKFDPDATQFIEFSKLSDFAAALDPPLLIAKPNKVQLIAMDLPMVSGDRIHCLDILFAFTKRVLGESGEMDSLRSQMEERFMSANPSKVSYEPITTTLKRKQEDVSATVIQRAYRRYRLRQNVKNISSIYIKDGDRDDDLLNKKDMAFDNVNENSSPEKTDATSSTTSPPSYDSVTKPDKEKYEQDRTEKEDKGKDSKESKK

Compound | IC50 (Nav 1.7 [1]) [nM] | IC50 (Nav 1.7 [2]) [nM]
COc1cc(C(F)(F)F)ccc1-c1nccc2cc(S(=O)(=O)Nc3cccnn3)ccc12 [Example 185, 1-(2-METHOXY-4-(TRIFLUOROMETHYL)PHENYL)-N-(PYRIDAZIN-3-YL)ISOQUINOLINE-6-SULFONAMIDE] | 270 | 2700
O=S(=O)(Nc1ccncn1)c1ccc2c(OCc3cccc4[nH]ncc34)nccc2c1 [Example 136, 1-((1H-INDAZOL-4-YL)METHOXY)-N-(PYRIMIDIN-4-YL)ISOQUINOLINE-6-SULFONAMIDE] | 3590 | > 30000
O=S(=O)(Nc1ccncn1)c1ccc2c(OCCCc3ccc(Cl)cc3)nccc2c1 [Example 132, 1-(3-(4-CHLOROPHENYL)PROPOXY)-N-(PYRIMIDIN-4-YL)ISOQUINOLINE-6-SULFONAMIDE] | 870 | 7900
COc1ccc(-c2nccc3cc(S(=O)(=O)Nc4ccncn4)ccc23)c(OC)n1 [Example 145, 1-(2,6-DIMETHOXYPYRIDIN-3-YL)-N-(PYRIMIDIN-4-YL)ISOQUINOLINE-6-SULFONAMIDE] | 920 | 16400
C[C@@H](COc1ccc(Cl)cc1)Oc1nccc2cc(S(=O)(=O)Nc3ccncn3)ccc12 [Example 131, (S)-1-((1-(4-CHLOROPHENOXY)PROPAN-2-YL)OXY)-N-(PYRIMIDIN-4-YL)ISOQUINOLINE-6-SULFONAMIDE] | 810 | 4190
COc1ccccc1-c1cccc2cc(S(=O)(=O)Nc3ncns3)ccc12 [Example 94] | 10 | 57.2
O=S(=O)(Nc1ccncn1)c1ccc2c(-c3ccc(C(F)(F)F)cc3)nccc2c1 [Example 141, N-(PYRIMIDIN-4-YL)-1-(4-(TRIFLUOROMETHYL)PHENYL)ISOQUINOLINE-6-SULFONAMIDE] | 2300 | 29600
COc1cc(C#N)ccc1-c1ccnc2cc(S(=O)(=O)Nc3nccs3)ccc12 [Example 273, 4-(4-CYANO-2-METHOXYPHENYL)-N-(THIAZOL-2-YL)QUINOLINE-7-SULFONAMIDE] | 20 | 500
CCOc1ccccc1-c1nccc2cc(S(=O)(=O)Nc3ccncn3)ccc12 [Example 173, 1-(2-ETHOXYPHENYL)-N-(PYRIMIDIN-4-YL)ISOQUINOLINE-6-SULFONAMIDE] | 430 | 8750
COc1ccc(C(F)(F)F)cc1-c1nccc2cc(S(=O)(=O)Nc3ccncn3)ccc12 [Example 139, 1-(2-METHOXY-5-(TRIFLUOROMETHYL)PHENYL)-N-(PYRIMIDIN-4-YL)ISOQUINOLINE-6-SULFONAMIDE] | 10 | 415
COc1cc(C(F)(F)F)ccc1-c1ncnc2cc(S(=O)(=O)Nc3ccncn3)ccc12 [Example 262, 4-(2-METHOXY-4-(TRIFLUOROMETHYL)PHENYL)-N-(PYRIMIDIN-4-YL)QUINAZOLINE-7-SULFONAMIDE] | 40 | 960
COc1cc(C(F)(F)F)ccc1-c1c(C#N)cnc2cc(S(=O)(=O)Nc3nccs3)ccc12 [Example 284, 3-CYANO-4-(2-METHOXY-4-(TRIFLUOROMETHYL)PHENYL)-N-(THIAZOL-2-YL)QUINOLINE-7-SULFONAMIDE] | 60 | 320
COc1cc(OC(F)(F)F)ccc1-c1nccc2cc(S(=O)(=O)Nc3ccncn3)ccc12 [Example 153, 1-(2-METHOXY-4-(TRIFLUOROMETHOXY)PHENYL)-N-(PYRIMIDIN-4-YL)ISOQUINOLINE-6-SULFONAMIDE] | 20 | 914
CS(=O)(=O)c1cc(C(F)(F)F)ccc1-c1cccc2cc(S(=O)(=O)Nc3ccncn3)ccc12 [Example 117] | 180 | 2880
COc1cc(C(F)(F)F)ccc1-c1nccc2cc(S(=O)(=O)Nc3nccs3)ccc12 [Example 196, 1-(2-METHOXY-4-(TRIFLUOROMETHYL)PHENYL)-N-(THIAZOL-2-YL)ISOQUINOLINE-6-SULFONAMIDE] | 10 | 298
O=S(=O)(Nc1ccncn1)c1ccc2c(-c3ccc(C(F)(F)F)cc3Cl)nccc2c1 [Example 156, 1-(2-CHLORO-4-(TRIFLUOROMETHYL)PHENYL)-N-(PYRIMIDIN-4-YL)ISOQUINOLINE-6-SULFONAMIDE] | 220 | 2850
